In patent US7691848B2, “Pyrrolobenzodiazepine arylcarboxamides and derivatives thereof as follicle-stimulating hormone receptor antagonists” (Wyeth, priority 2005, dated 2010):

How the values were obtained:
human FSH receptor = biological target: T1, human FSH receptor (Homo sapiens, UniProt P23945); assay: Follicle-Stimulating Hormone Receptor-Dependent Cre-Luciferase Reporter Gene Assay (CHO FSH-R 6CRE-Luc cells); format: cell-based; conditions: for IC50: dose-response format, in presence of EC50 of purified human FSH
T1 construct: host or cells: CHO-K1 (CHO FSH-R 6CRE-Luc, 1D7 cells)
T1 sequence (P23945 18-695): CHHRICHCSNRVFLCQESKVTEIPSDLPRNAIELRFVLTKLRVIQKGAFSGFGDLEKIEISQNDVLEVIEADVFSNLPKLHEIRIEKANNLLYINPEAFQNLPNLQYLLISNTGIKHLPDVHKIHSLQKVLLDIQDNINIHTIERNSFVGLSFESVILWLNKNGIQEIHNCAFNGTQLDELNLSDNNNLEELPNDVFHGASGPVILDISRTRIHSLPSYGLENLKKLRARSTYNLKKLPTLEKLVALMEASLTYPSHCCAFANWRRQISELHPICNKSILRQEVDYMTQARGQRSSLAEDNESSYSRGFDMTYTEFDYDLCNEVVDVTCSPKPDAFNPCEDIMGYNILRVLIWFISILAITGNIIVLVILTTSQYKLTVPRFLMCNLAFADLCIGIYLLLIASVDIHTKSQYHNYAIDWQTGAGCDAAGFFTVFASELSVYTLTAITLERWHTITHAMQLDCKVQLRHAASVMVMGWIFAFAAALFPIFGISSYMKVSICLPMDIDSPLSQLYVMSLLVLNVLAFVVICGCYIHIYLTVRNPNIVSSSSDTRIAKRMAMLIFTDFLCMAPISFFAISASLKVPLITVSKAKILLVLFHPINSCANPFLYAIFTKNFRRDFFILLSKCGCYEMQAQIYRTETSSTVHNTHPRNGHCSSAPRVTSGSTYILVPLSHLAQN
Method in brief: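 CHO-K1 cells stably expressing human FSH receptor and a 6×CRE-driven luciferase reporter; compounds in growth medium with 0.2% DMSO, incubated 4 h at 37 °C. Luciferase measured by chemiluminescence (RLU/sec/well); 2-dose results given as percent inhibition of the response to an EC50 concentration of FSH.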

hFSH-R = biological target: T2, hFSH-R (Homo sapiens, UniProt P23945); assay: cAMP accumulation (RIA) in CHO-3D2 cells (hFSH-R), hFSH-induced; format: cell-based; conditions: for Emax: read-out: cAMP % efficacy
T2 construct: expressed in transfected cells; host or cells: CHO-3D2 cells (CHO-K1 parental line)
T2 sequence (P23945 18-695): T1 sequence (P23945 18-695)
Protocol: In Vitro Bio-Assay, Selectivity and Dependency of Agonists and Antagonists to the FSH Receptor
Compound Vehicle: Stock compounds were solubilized in 100% DMSO (Sigma-Aldrich Chemical Co., St. Louis, Mo.) at a concentration of 30 mM. The compounds subsequently were diluted in sterile assay medium consisting of Opti-MEM® I (Invitrogen/Life Technologies, Carlsbad, Calif.) with 0.1% (w/v) BSA (Sigma-Aldrich) prior to use in the bio-assay. The final concentration of DMSO in the assay was 0.1%.
Plated cells are then incubated at 37° C. in a humidified 5% CO2/95% air atmosphere.
Assay: On the day of the assay, cells were washed three times with 100 μl/well of assay medium consisting of Opti-MEM® I (Invitrogen/Life Technologies) with 0.1% (w/v) BSA (Sigma-Aldrich). Medium was removed and 100 μl of assay medium was added to each well. Plates were incubated for an additional 30 minutes at 37° C. […] Reactions were terminated by the addition of 50 μl of 0.2N hydrochloric acid to each well and cAMP-accumulation was measured by radioimmunoassay (RIA) using a commercially available kit (Amersham Biosciences, Piscataway, N.J.).
All test compounds were evaluated in a dose-response paradigm ranging from 0.01 to 30 μM. Controls and test compounds were evaluated in quadruplicate in a 96-well format.
Along with the test compounds, FSH also was run as a positive control in the agonist mode using concentrations ranging from 0.1-1000 ng/ml.
Data were analyzed by one-way analysis of variance and significant differences between treatments and control determined by Least Significant Difference test.
Test compounds were compared to the effect of purified human FSH.

COc1cc(C(=O)N2Cc3ccc(C(=O)NCc4cccc(C(F)(F)F)c4)n3Cc3ccccc32)ccc1-c1ccccc1C [Example 42, 10-[(2-METHOXY-2′-METHYL-1,1′-BIPHENYL-4-YL)CARBONYL]-N-[3-(TRIFLUOROMETHYL)BENZYL]-10,11-DIHYDRO-5H-PYRROLO[2,1-C][1,4]BENZODIAZEPINE-3-CARBOXAMIDE]
IC50 (human FSH receptor): 4330 nM | melting point: 176 to 177 °C | IC50 (hFSH-R): 6300 nM | Emax (hFSH-R): 74%

Cc1ccccc1-c1ccc(C(=O)N2Cc3ccc(C(=O)NCc4ccc5c(c4)OCO5)n3Cc3ccccc32)cc1C [Example 23]
IC50 (human FSH receptor): 1410 nM | melting point: 149 to 151 °C | IC50 (hFSH-R): 7700 nM | Emax (hFSH-R): 77%

COc1cc(C(=O)N2Cc3ccc(C(=O)NCc4ccc(C)cc4)n3Cc3ccccc32)ccc1-c1ccccc1C [Example 38, 10-[(2-METHOXY-2′-METHYL-1,1′-BIPHENYL-4-YL)CARBONYL]-N-(4-METHYLBENZYL)-10,11-DIHYDRO-5H-PYRROLO[2,1-C][1,4]BENZODIAZEPINE-3-CARBOXAMIDE]
IC50 (human FSH receptor): 1690 nM | melting point: 179 to 180 °C | IC50 (hFSH-R): 500 nM | Emax (hFSH-R): 83%

Cc1ccccc1-c1ccc(C(=O)N2Cc3ccc(C(=O)NCc4cccc(C(F)(F)F)c4)n3Cc3ccccc32)cc1C [Example 16]
IC50 (human FSH receptor): 8500 nM | melting point: 171 to 173 °C | IC50 (hFSH-R): 14000 nM | Emax (hFSH-R): 65%

Cc1ccccc1-c1ccc(C(=O)N2Cc3ccc(C(=O)NCc4ccc(Cl)cc4)n3Cc3ccccc32)cc1C [Example 18]
inhibition at 30 µM (human FSH receptor; 2-dose format, concentration in parentheses 30 μM, inhibition of the response to EC50 of FSH): 58% | melting point: 196 to 197 °C | IC50 (hFSH-R): > 30000 nM

COc1cc(C(=O)N2Cc3ccc(C(=O)NCc4ccc5c(c4)OCO5)n3Cc3ccccc32)ccc1-c1ccccc1C [Example 40]
IC50 (human FSH receptor): 1050 nM | melting point: 167 to 168 °C | IC50 (hFSH-R): 400 nM | Emax (hFSH-R): 90%

Cc1ccc(CNC(=O)c2ccc3n2Cc2ccccc2N(C(=O)c2ccc(-c4ccccc4C)c(C)c2)C3)cc1 [Example 14]
IC50 (human FSH receptor): 1710 nM | melting point: 179 to 181 °C | IC50 (hFSH-R): 2600 nM | Emax (hFSH-R): 86%

Cc1ccccc1-c1ccc(C(=O)N2Cc3ccc(C(=O)NCc4cccc(N)c4)n3Cc3ccccc32)cc1C [Example 34]
IC50 (human FSH receptor): 5370 nM | melting point: 105 to 115 °C | IC50 (hFSH-R): 2600 nM

Cc1ccccc1-c1ccc(C(=O)N2Cc3ccc(C(=O)NCc4ccccc4)n3Cc3ccccc32)cc1C [Example 15]
IC50 (human FSH receptor): 2600 nM | melting point: 138 to 141 °C | IC50 (hFSH-R): 400 nM | Emax (hFSH-R): 90%

COc1cc(C(=O)N2Cc3ccc(C(=O)NCc4ccc5c(c4)OCCO5)n3Cc3ccccc32)ccc1-c1ccccc1C [Example 64]
IC50 (human FSH receptor): 3400 nM | melting point: 153 to 155 °C | IC50 (hFSH-R): 1300 nM | Emax (hFSH-R): 79%

COc1ccc(CNC(=O)c2ccc3n2Cc2ccccc2N(C(=O)c2ccc(-c4ccccc4C)c(C)c2)C3)cc1 [Example 8]
IC50 (human FSH receptor): 2390 nM | melting point: 127 to 128 °C | IC50 (hFSH-R): 3600 nM | Emax (hFSH-R): 63%

COc1cc(CNC(=O)c2ccc3n2Cc2ccccc2N(C(=O)c2ccc(-c4ccccc4C)c(C)c2)C3)cc(OC)c1 [Example 20]
IC50 (human FSH receptor): 12000 nM | melting point: 183 to 184 °C | IC50 (hFSH-R): > 30000 nM

COc1cc(C(=O)N2Cc3ccc(C(=O)NCc4ccc(F)cc4)n3Cc3ccccc32)ccc1-c1ccccc1C [Example 60, N-(4-FLUOROBENZYL)-10-[(2-METHOXY-2′-METHYL-1,1′-BIPHENYL-4-YL)CARBONYL]-10,11-DIHYDRO-5H-PYRROLO[2,1-C][1,4]BENZODIAZEPINE-3-CARBOXAMIDE]
IC50 (human FSH receptor): 1130 nM | melting point: 214 to 215 °C | IC50 (hFSH-R): 400 nM | Emax (hFSH-R): 95%

COc1cc(C(=O)N2Cc3ccc(C(=O)NCc4ccccc4)n3Cc3ccccc32)ccc1-c1ccccc1C [Example 44, N-BENZYL-10-[(2-METHOXY-2′-METHYL-1,1′-BIPHENYL-4-YL)CARBONYL]-10,11-DIHYDRO-5H-PYRROLO[2,1-C][1,4]BENZODIAZEPINE-3-CARBOXAMIDE]
IC50 (human FSH receptor): 1350 nM | melting point: 170 to 174 °C | IC50 (hFSH-R): > 30000 nM

Cc1ccccc1CNC(=O)c1ccc2n1Cc1ccccc1N(C(=O)c1ccc(-c3ccccc3C)c(C)c1)C2 [Example 17]
IC50 (human FSH receptor): 6390 nM | melting point: 128 to 130 °C | IC50 (hFSH-R): 2600 nM | Emax (hFSH-R): 88%

Cc1ccc(CNC(=O)c2ccc3n2Cc2ccccc2N(C(=O)c2ccc(-c4ccccc4C)c(C)c2)C3)c(C)c1 [Example 21]
IC50 (human FSH receptor): 6200 nM | melting point: 159 to 161 °C | IC50 (hFSH-R): > 30000 nM

COc1cc(C(=O)N2Cc3ccc(C(=O)NCCc4ccc(O)cc4)n3Cc3ccccc32)ccc1-c1ccccc1C [Example 55, N-[2-(4-HYDROXYPHENYL)ETHYL]-10-[(2-METHOXY-2′-METHYL-1,1′-BIPHENYL-4-YL)CARBONYL]-10,11-DIHYDRO-5H-PYRROLO[2,1-C][1,4]BENZODIAZEPINE-3-CARBOXAMIDE]
IC50 (human FSH receptor): > 30000 nM | melting point: 190 to 194 °C | IC50 (hFSH-R): 13000 nM | Emax (hFSH-R): 60%

Cc1cccc(CNC(=O)c2ccc3n2Cc2ccccc2N(C(=O)c2ccc(-c4ccccc4C)c(C)c2)C3)c1 [Example 22]
IC50 (human FSH receptor): 2880 nM | melting point: 130 to 132 °C | IC50 (hFSH-R): 3000 nM | Emax (hFSH-R): 62%

COc1cc(C(=O)N2Cc3ccc(C(=O)NCc4cccc(C)c4)n3Cc3ccccc32)ccc1-c1ccccc1C [Example 37, 10-[(2-METHOXY-2′-METHYL-1,1′-BIPHENYL-4-YL)CARBONYL]-N-(3-METHYLBENZYL)-10,11-DIHYDRO-5H-PYRROLO[2,1-C][1,4]BENZODIAZEPINE-3-CARBOXAMIDE]
IC50 (human FSH receptor): 4030 nM | melting point: 165 to 166 °C | IC50 (hFSH-R): 700 nM | Emax (hFSH-R): 80%

Cc1ccccc1-c1ccc(C(=O)N2Cc3ccc(C(=O)NCCc4ccc(O)cc4)n3Cc3ccccc32)cc1C [Example 31]
IC50 (human FSH receptor): 800 nM | melting point: 129 to 131 °C | IC50 (hFSH-R): 200 nM | Emax (hFSH-R): 100%
